US20260325533A1, “CDK INHIBITOR COMPOUNDS” (ALEKSIA THERAPEUTICS, INC., priority 2023, published 2026)
Where two headings read alike, the source gives them in different places.

Key:
Format in all cases: biochemical
CDK4/CCND3 = CDK4/CCND3 (Homo sapiens, UniProt P11802); assay: CDK4 homogeneous time-resolved fluorescence (HTRF) kinase assay; settings: CDK4/CCND
In short: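 Steps: compound plus 1.5 nM CDK4/CCND3, 20 min, 23 °C; add 1 mM ATP and 50 nM ULight-4E-BP1 (Thr37/46) peptide, 60 min; stop with 10 mM EDTA; add 2 nM Eu anti-phospho antibody, 60 min; read 665 nm. IC50 from 11-point half-log series starting 10 μM.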

CDK6/CCND1 = CDK6/CCND1 (Homo sapiens, UniProt Q00534); assay: CDK6 homogeneous time-resolved fluorescence (HTRF) kinase assay; settings: CDK6/CCND
In short: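 Enzyme pre-incubated 20 min at 23 °C with compound, then reacted 60 min at 23 °C with 1 mM ATP and 50 nM ULight-4E-BP1 (Thr37/46) peptide; 1 nM enzyme, 1% DMSO. EDTA-stopped, Eu-anti-phospho antibody TR-FRET read (665 nm or 665/615 ratio); 11-point half-log titration from 10 μM gave IC50.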

CDK1/CCNB1 = CDK1/CCNB1 (Homo sapiens, UniProt P06493); assay: CDK1 homogeneous time-resolved fluorescence (HTRF) kinase assay; settings: CDK1/CCNB
In short: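 HTRF assay with 0.5 nM CDK1/CCNB1, 1 mM ATP, 50 nM ULight-eIF4E-BP1 (Thr37/46) peptide; compound preincubated 20 min, reaction 60 min at 23 °C, EDTA stop, Eu-anti-phospho antibody detection. 11-point half-log titration from 10 μM, 1% DMSO; IC50 from 665 nm or 665/615 signal.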

CDK2/CCNE1 = CDK2/CCNE1 (Homo sapiens, UniProt P24941); assay: CDK2 homogeneous time-resolved fluorescence (HTRF) kinase assay; settings: CDK2/CCNE
In short: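 CDK2/CCNE1 (3 nM) preincubated 20 min at 23 °C with compound, then reacted 60 min at 23 °C with 1 mM ATP and 50 nM ULight-4E-BP1 (Thr37/46) peptide. Stopped with EDTA, phospho-peptide detected by Eu-anti-phospho antibody (665 nm or 665/615 ratio). IC50 from 11-point half-log titrations typically starting at 10 μM.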

[1] = 25-250 nM marked x, read-out: CDK4/CCND IC50 25-250 nM
[2] = >250 nM marked x, read-out: CDK6/CCND IC50 >250 nM
[3] = >250 nM marked x, read-out: CDK1/CCNB IC50 >250 nM
[4] = 25-250 nM marked x, read-out: CDK2/CCNE IC50 25-250 nM
[5] = >250 nM marked x, read-out: CDK4/CCND IC50 >250 nM
[6] = 25-250 nM marked x, read-out: CDK6/CCND IC50 25-250 nM
[7] = 25-250 nM marked x, read-out: CDK1/CCNB IC50 25-250 nM
[8] = <25 nM, read-out: CDK2/CCNE IC50 <25 nM
[9] = >250 nM marked x, read-out: CDK2/CCNE IC50 >250 nM

Chain of CDK4/CCND3 (P11802 whole entry): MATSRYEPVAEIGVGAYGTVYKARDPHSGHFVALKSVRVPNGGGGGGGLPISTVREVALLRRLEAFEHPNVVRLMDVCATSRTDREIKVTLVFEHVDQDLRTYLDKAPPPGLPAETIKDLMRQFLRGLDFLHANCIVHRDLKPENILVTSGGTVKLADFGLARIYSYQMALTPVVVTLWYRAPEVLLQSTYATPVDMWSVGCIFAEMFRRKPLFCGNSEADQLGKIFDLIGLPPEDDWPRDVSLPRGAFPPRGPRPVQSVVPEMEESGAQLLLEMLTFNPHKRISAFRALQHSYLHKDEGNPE
Chain of CDK4/CCND3 (P30281 whole entry partner): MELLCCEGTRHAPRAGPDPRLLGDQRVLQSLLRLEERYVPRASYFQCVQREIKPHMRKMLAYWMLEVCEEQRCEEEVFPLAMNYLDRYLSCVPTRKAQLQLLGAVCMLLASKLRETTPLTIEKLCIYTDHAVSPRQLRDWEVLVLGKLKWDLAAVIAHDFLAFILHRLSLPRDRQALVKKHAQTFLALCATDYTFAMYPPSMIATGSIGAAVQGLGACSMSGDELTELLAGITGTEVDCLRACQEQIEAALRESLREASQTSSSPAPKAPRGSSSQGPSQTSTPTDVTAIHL
Chain of CDK1/CCNB1 (P06493 whole entry): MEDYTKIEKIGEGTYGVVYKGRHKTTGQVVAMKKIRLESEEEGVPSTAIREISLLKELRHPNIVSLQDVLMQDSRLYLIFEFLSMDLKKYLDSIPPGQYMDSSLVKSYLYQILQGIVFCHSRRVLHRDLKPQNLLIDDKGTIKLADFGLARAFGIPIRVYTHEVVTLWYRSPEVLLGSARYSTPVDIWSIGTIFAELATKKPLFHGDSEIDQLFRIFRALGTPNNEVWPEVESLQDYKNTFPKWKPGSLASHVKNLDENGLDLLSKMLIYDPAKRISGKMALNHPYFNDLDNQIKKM
Chain of CDK1/CCNB1 (P14635 whole entry partner): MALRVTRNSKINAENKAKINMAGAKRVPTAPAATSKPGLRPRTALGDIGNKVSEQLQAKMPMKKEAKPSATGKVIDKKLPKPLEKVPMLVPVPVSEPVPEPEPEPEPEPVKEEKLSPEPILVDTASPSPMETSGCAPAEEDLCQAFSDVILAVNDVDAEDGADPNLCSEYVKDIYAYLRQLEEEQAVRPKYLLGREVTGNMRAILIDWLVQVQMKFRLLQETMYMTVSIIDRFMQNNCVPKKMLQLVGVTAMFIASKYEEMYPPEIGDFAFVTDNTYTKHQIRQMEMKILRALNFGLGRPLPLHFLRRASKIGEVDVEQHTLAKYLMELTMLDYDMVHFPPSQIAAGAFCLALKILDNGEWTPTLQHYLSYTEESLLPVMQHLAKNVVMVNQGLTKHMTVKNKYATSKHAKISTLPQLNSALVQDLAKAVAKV
Chain of CDK6/CCND1 (Q00534 whole entry): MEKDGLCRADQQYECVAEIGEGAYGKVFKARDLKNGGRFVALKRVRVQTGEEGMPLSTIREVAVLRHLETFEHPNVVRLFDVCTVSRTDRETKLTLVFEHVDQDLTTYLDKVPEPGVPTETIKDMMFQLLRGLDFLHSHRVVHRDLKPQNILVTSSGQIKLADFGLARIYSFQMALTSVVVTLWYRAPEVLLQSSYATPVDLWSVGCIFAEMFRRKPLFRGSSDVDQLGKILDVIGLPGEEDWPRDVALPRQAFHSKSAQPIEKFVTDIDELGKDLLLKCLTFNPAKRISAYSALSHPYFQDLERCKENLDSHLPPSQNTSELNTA
Chain of CDK6/CCND1 (P24385 whole entry partner): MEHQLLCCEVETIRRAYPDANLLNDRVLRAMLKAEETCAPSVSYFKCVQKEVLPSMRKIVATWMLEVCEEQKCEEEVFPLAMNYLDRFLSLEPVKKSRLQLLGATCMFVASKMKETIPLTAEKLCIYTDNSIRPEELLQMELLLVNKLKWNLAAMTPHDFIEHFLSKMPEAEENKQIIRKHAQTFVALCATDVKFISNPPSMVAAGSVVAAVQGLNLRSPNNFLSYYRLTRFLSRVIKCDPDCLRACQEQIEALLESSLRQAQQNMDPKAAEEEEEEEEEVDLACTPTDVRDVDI

| IC50 (CDK4/CCND3; [1]) | IC50 (CDK6/CCND1; [2]) | IC50 (CDK1/CCNB1; [3]) | IC50 (CDK2/CCNE1; [4]) | IC50 (CDK4/CCND3; [5]) | IC50 (CDK6/CCND1; [6]) | IC50 (CDK1/CCNB1; [7]) | IC50 (CDK2/CCNE1; [8]) | IC50 (CDK2/CCNE1; [9]) | IC50 (CDK4/CCND3; <25 nM, read-out: CDK4/CCND IC50 <25 nM) | IC50 (CDK6/CCND1; <25 nM, read-out: CDK6/CCND IC50 <25 nM) | SMILES |
| --- | --- | --- | --- | --- | --- | --- | --- | --- | --- | --- | --- |
| 25 to 250 nM | > 250 nM | > 250 nM | 25 to 250 nM |  |  |  |  |  |  |  | CS(=O)(=O)c1ccc(Nc2cc3c(-c4ccc5[nH]ncc5c4F)nccc3cn2)cc1 [Ex 184, 5-(4-fluoro-1H-indazol-5-yl)-N-(4-(methylsulfonyl)phenyl)-2,6-naphthyridin-3-amine] |
|  | > 250 nM | > 250 nM | 25 to 250 nM | > 250 nM |  |  |  |  |  |  | C=CS(=O)(=O)c1ccc(Nc2cc3c(-c4ccc5[nH]ccc5c4)nccc3cn2)cc1 [Ex 185, 5-(1H-indol-5-yl)-N-(4-(vinylsulfonyl)phenyl)-2,6-naphthyridin-3-amine] |
|  | > 250 nM | > 250 nM | 25 to 250 nM | > 250 nM |  |  |  |  |  |  | CS(=O)(=O)c1ccc(Nc2cc3c(ccnc3[C@H]3CC[C@H](C(=O)NC4CCC4)CC3)cn2)cc1 [Ex 200, (1r,4r)-N-cyclobutyl-4-(7-((4-(methylsulfonyl)phenyl)amino)-2,6-naphthyridin-1-yl)cyclohexane-1-carboxamide] |
|  | > 250 nM | > 250 nM | 25 to 250 nM | > 250 nM |  |  |  |  |  |  | Cc1c(-c2nccc3cnc(Nc4ccc(S(C)(=O)=O)cc4)cc23)ccc2nn(CCO)cc12 [Ex 206, 2-(4-methyl-5-(7-((4-(methylsulfonyl)phenyl)amino)-2,6-naphthyridin-1-yl)-2H-indazol-2-yl)ethan-1-ol] |
|  | > 250 nM | > 250 nM | 25 to 250 nM | > 250 nM |  |  |  |  |  |  | C=CS(=O)(=O)c1ccc(Nc2cc3c(-c4cccc(CO)c4)nccc3cn2)cc1 [Ex 217, (3-(7-((4-(vinylsulfonyl)phenyl)amino)-2,6-naphthyridin-1-yl)phenyl)methanol] |
|  | > 250 nM | > 250 nM | 25 to 250 nM | > 250 nM |  |  |  |  |  |  | COc1c(-c2nccc3cnc(Nc4ccc(S(C)(=O)=O)cc4)cc23)ccc2[nH]ncc12 [Ex 220, 5-(4-methoxy-1H-indazol-5-yl)-N-(4-(methylsulfonyl)phenyl)-2,6-naphthyridin-3-amine] |
|  | > 250 nM | > 250 nM | 25 to 250 nM | > 250 nM |  |  |  |  |  |  | C=CCNC(=O)[C@H]1CC[C@H](c2nccc3cnc(Nc4ccc(S(C)(=O)=O)cc4)cc32)CC1 [Ex 224, (1r,4r)-N-allyl-4-(7-((4-(methylsulfonyl)phenyl)amino)-2,6-naphthyridin-1-yl)cyclohexane-1-carboxamide] |
|  | > 250 nM | > 250 nM |  | > 250 nM |  |  |  | > 250 nM |  |  | CN(C)C(=O)[C@H]1CC[C@H](c2nccc3cnc(Nc4ccc(S(C)(=O)=O)cc4)cc32)CC1 [Ex 225, (1r,4r)-N,N-dimethyl-4-(7-((4-(methylsulfonyl)phenyl)amino)-2,6-naphthyridin-1-yl)cyclohexane-1-carboxamide] |
|  | > 250 nM | > 250 nM |  | > 250 nM |  |  |  | > 250 nM |  |  | CS(=O)(=O)c1ccc(Nc2cc3c(ccnc3[C@H]3CC[C@H](C(=O)N4CCSCC4)CC3)cn2)cc1 [Ex 228, ((1r,4r)-4-(7-((4-(methylsulfonyl)phenyl)amino)-2,6-naphthyridin-1-yl)cyclohexyl)(thiomorpholino)methanone] |

Second part, the compound before the results:

| SMILES | IC50 (CDK4/CCND3; [1]) | IC50 (CDK6/CCND1; [2]) | IC50 (CDK1/CCNB1; [3]) | IC50 (CDK2/CCNE1; [4]) | IC50 (CDK4/CCND3; [5]) | IC50 (CDK6/CCND1; [6]) | IC50 (CDK1/CCNB1; [7]) | IC50 (CDK2/CCNE1; [8]) | IC50 (CDK2/CCNE1; [9]) | IC50 (CDK4/CCND3; <25 nM, read-out: CDK4/CCND IC50 <25 nM) | IC50 (CDK6/CCND1; <25 nM, read-out: CDK6/CCND IC50 <25 nM) |
| --- | --- | --- | --- | --- | --- | --- | --- | --- | --- | --- | --- |
| N#CC1CCN(c2nccc3cnc(Nc4ccc(S(N)(=O)=O)cc4)cc23)CC1 [Ex 187, 4-((5-(4-cyanopiperidin-1-yl)-2,6-naphthyridin-3-yl)amino)benzenesulfonamide] | 25 to 250 nM |  |  |  |  | 25 to 250 nM | 25 to 250 nM | < 25 nM |  |  |  |
| CS(=O)(=O)c1ccc(Nc2cc3c(C4CCN(C(=O)Nc5cccnc5)CC4)nccc3cn2)cc1 [Ex 198, 4-(7-((4-(methylsulfonyl)phenyl)amino)-2,6-naphthyridin-1-yl)-N-(pyridin-3-yl)piperidine-1-carboxamide] |  | > 250 nM | > 250 nM |  | > 250 nM |  |  |  | > 250 nM |  |  |
| COCCNC(=O)[C@H]1CC[C@H](c2nccc3cnc(Nc4ccc(S(C)(=O)=O)cc4)cc32)CC1 [Ex 199, (1r,4r)-N-(2-methoxyethyl)-4-(7-((4-(methylsulfonyl)phenyl)amino)-2,6-naphthyridin-1-yl)cyclohexane-1-carboxamide] |  | > 250 nM | > 250 nM | 25 to 250 nM | > 250 nM |  |  |  |  |  |  |
| CS(=O)(=O)c1ccc(Nc2cc3c(ccnc3[C@H]3CC[C@H](C(=O)N4CCOCC4)CC3)cn2)cc1 [Ex 201, ((1r,4r)-4-(7-((4-(methylsulfonyl)phenyl)amino)-2,6-naphthyridin-1-yl)cyclohexyl)(morpholino)methanone] |  | > 250 nM | > 250 nM |  | > 250 nM |  |  |  | > 250 nM |  |  |
| CS(=O)(=O)c1ccc(Nc2cc3c(ccnc3[C@H]3CC[C@H](C(=O)Nc4ccccc4)CC3)cn2)cc1 [Ex 202, (1r,4r)-4-(7-((4-(methylsulfonyl)phenyl)amino)-2,6-naphthyridin-1-yl)-N-phenylcyclohexane-1-carboxamide] |  | > 250 nM | > 250 nM | 25 to 250 nM | > 250 nM |  |  |  |  |  |  |
| Cc1c(-c2nccc3cnc(Nc4ccc(S(C)(=O)=O)cc4)cc23)ccc2c1cnn2CC1CNC1 [Ex 207, 5-(1-(azetidin-3-ylmethyl)-4-methyl-1H-indazol-5-yl)-N-(4-(methylsulfonyl)phenyl)-2,6-naphthyridin-3-amine] |  |  |  |  |  |  | 25 to 250 nM | < 25 nM |  | < 25 nM | < 25 nM |
| COC(=O)[C@H]1CC[C@H](C#Cc2nccc3cnc(Nc4ccc(S(C)(=O)=O)cc4)cc23)CC1 [Ex 213, methyl (1r,4r)-4-((7-((4-(methylsulfonyl)phenyl)amino)-2,6-naphthyridin-1-yl)ethynyl)cyclohexane-1-carboxylate] | 25 to 250 nM |  | > 250 nM |  |  | 25 to 250 nM |  | < 25 nM |  |  |  |
| CS(=O)(=O)c1ccc(Nc2cc3c(C#CC4CC4)nccc3cn2)cc1 [Ex 214, 5-(cyclopropylethynyl)-N-(4-(methylsulfonyl)phenyl)-2,6-naphthyridin-3-amine] | 25 to 250 nM |  | > 250 nM |  |  | 25 to 250 nM |  | < 25 nM |  |  |  |
| Cc1c(-c2nccc3cnc(Nc4ccc(S(C)(=O)=O)cc4)cc23)ccc2c1cnn2CCC1CNC1 [Ex 216, 5-(1-(2-(azetidin-3-yl)ethyl)-4-methyl-1H-indazol-5-yl)-N-(4-(methylsulfonyl)phenyl)-2,6-naphthyridin-3-amine] |  | > 250 nM | > 250 nM | 25 to 250 nM | > 250 nM |  |  |  |  |  |  |
| Cc1cc2[nH]ncc2cc1-c1nccc2cnc(Nc3ccc(S(=O)(=O)CCO)cc3)cc12 [Ex 222, 2-((4-((5-(6-methyl-1H-indazol-5-yl)-2,6-naphthyridin-3-yl)amino)phenyl)sulfonyl)ethan-1-ol] |  | > 250 nM | > 250 nM | 25 to 250 nM | > 250 nM |  |  |  |  |  |  |
| CS(=O)(=O)c1ccc(Nc2cc3c(ccnc3[C@H]3CC[C@H](C(N)=O)CC3)cn2)cc1 [Ex 223, (1r,4r)-4-(7-((4-(methylsulfonyl)phenyl)amino)-2,6-naphthyridin-1-yl)cyclohexane-1-carboxamide] | 25 to 250 nM | > 250 nM | > 250 nM | 25 to 250 nM |  |  |  |  |  |  |  |
| CS(=O)(=O)c1ccc(Nc2cc3c(ccnc3[C@H]3CC[C@H](C(=O)NC4CCOCC4)CC3)cn2)cc1 [Ex 226, (1r,4r)-4-(7-((4-(methylsulfonyl)phenyl)amino)-2,6-naphthyridin-1-yl)-N-(tetrahydro-2H-pyran-4-yl)cyclohexane-1-carboxamide] |  | > 250 nM | > 250 nM |  | > 250 nM |  |  |  | > 250 nM |  |  |
| CN1CCN(C(=O)[C@H]2CC[C@H](c3nccc4cnc(Nc5ccc(S(C)(=O)=O)cc5)cc43)CC2)CC1 [Ex 227, (4-methylpiperazin-1-yl)((1r,4r)-4-(7-((4-(methylsulfonyl)phenyl)amino)-2,6-naphthyridin-1-yl)cyclohexyl)methanone] |  | > 250 nM | > 250 nM |  | > 250 nM |  |  |  | > 250 nM |  |  |
| C=CS(=O)(=O)c1ccc(Nc2cc3c(-c4ccc5cn[nH]c5c4)nccc3cn2)cc1 [Ex 241, 5-(1H-indazol-6-yl)-N-(4-(vinylsulfonyl)phenyl)-2,6-naphthyridin-3-amine] |  |  | > 250 nM | 25 to 250 nM | > 250 nM | 25 to 250 nM |  |  |  |  |  |
